± gives the expanded uncertainty stated by the source.
Key:
[1] = 101.3 kPa, Liquid
[2] = xn = mol fraction of the nth substance listed; conditions: 101.3 kPa, Liquid

## CC(=O)O [acetic acid]
[1]; 293.15 K
  mass density: 1049.3 ± 0.57 kg/m3
  speed of sound: 1149 ± 2 m/s
  viscosity: 1.211 ± 0.016 mPa·s
[1]; 298.15 K
  mass density: 1043.65 ± 0.56 kg/m3
  speed of sound: 1132 ± 2 m/s
  viscosity: 1.115 ± 0.015 mPa·s
[1]; 303.15 K
  mass density: 1038 ± 0.56 kg/m3
  speed of sound: 1115 ± 2 m/s
  viscosity: 1.034 ± 0.014 mPa·s

## CCO [ethanol]
[1]; 293.15 K
  mass density: 789.75 ± 0.46 kg/m3
  speed of sound: 1162 ± 1 m/s
  viscosity: 1.187 ± 0.015 mPa·s
[1]; 298.15 K
  mass density: 785.46 ± 0.47 kg/m3
  speed of sound: 1145 ± 1 m/s
  viscosity: 1.082 ± 0.014 mPa·s
[1]; 303.15 K
  mass density: 781.15 ± 0.47 kg/m3
  speed of sound: 1128 ± 1 m/s
  viscosity: 0.987 ± 0.013 mPa·s

## CCOC(C)=O [ethyl acetate]
[1]; 293.15 K
  mass density: 900.52 ± 0.3 kg/m3
  speed of sound: 1163 ± 1 m/s
  viscosity: 0.452 ± 0.007 mPa·s
[1]; 298.15 K
  mass density: 894.43 ± 0.31 kg/m3
  speed of sound: 1140 ± 1 m/s
  viscosity: 0.426 ± 0.006 mPa·s
[1]; 303.15 K
  mass density: 888.3 ± 0.32 kg/m3
  speed of sound: 1118 ± 1 m/s
  viscosity: 0.403 ± 0.006 mPa·s

## CO [methanol]
[1]; 293.15 K
  mass density: 791.9 ± 0.46 kg/m3
  speed of sound: 1121 ± 1 m/s
  viscosity: 0.585 ± 0.008 mPa·s
[1]; 298.15 K
  mass density: 787.2 ± 0.47 kg/m3
  speed of sound: 1104 ± 1 m/s
  viscosity: 0.545 ± 0.008 mPa·s
[1]; 303.15 K
  mass density: 782.48 ± 0.47 kg/m3
  speed of sound: 1088 ± 1 m/s
  viscosity: 0.508 ± 0.007 mPa·s

## COC(C)=O [methyl ethanoate]
[1]; 293.15 K
  mass density: 933.56 ± 0.53 kg/m3
  speed of sound: 1174 ± 2 m/s
  viscosity: 0.386 ± 0.006 mPa·s
[1]; 298.15 K
  mass density: 926.98 ± 0.53 kg/m3
  speed of sound: 1151 ± 2 m/s
  viscosity: 0.367 ± 0.006 mPa·s
[1]; 303.15 K
  mass density: 920.34 ± 0.53 kg/m3
  speed of sound: 1128 ± 2 m/s
  viscosity: 0.348 ± 0.006 mPa·s

## COC(C)=O [methyl ethanoate] + CC(=O)O
[2]; 293.15 K, x2 = 0
  mass density: 933.56 ± 0.53 kg/m3
  speed of sound: 1174 ± 2 m/s
  viscosity: 0.386 ± 0.006 mPa·s
[2]; 293.15 K, x2 = 0.0496
  mass density: 938.74 ± 0.53 kg/m3
  speed of sound: 1177 ± 2 m/s
  viscosity: 0.401 ± 0.006 mPa·s
[2]; 293.15 K, x2 = 0.0956
  mass density: 943.44 ± 0.52 kg/m3
  speed of sound: 1177 ± 2 m/s
  viscosity: 0.417 ± 0.007 mPa·s
[2]; 293.15 K, x2 = 0.195
  mass density: 953.14 ± 0.52 kg/m3
  speed of sound: 1177 ± 2 m/s
  viscosity: 0.46 ± 0.007 mPa·s
[2]; 293.15 K, x2 = 0.3007
  mass density: 963.86 ± 0.52 kg/m3
  speed of sound: 1176 ± 2 m/s
  viscosity: 0.506 ± 0.008 mPa·s
[2]; 293.15 K, x2 = 0.3902
  mass density: 973.23 ± 0.52 kg/m3
  speed of sound: 1174 ± 2 m/s
  viscosity: 0.552 ± 0.008 mPa·s
[2]; 293.15 K, x2 = 0.4937
  mass density: 984.52 ± 0.52 kg/m3
  speed of sound: 1172 ± 2 m/s
  viscosity: 0.617 ± 0.009 mPa·s
[2]; 293.15 K, x2 = 0.5953
  mass density: 996.15 ± 0.52 kg/m3
  speed of sound: 1169 ± 2 m/s
  viscosity: 0.691 ± 0.01 mPa·s
[2]; 293.15 K, x2 = 0.6894
  mass density: 1007.51 ± 0.53 kg/m3
  speed of sound: 1166 ± 2 m/s
  viscosity: 0.775 ± 0.011 mPa·s
[2]; 293.15 K, x2 = 0.7943
  mass density: 1020.92 ± 0.54 kg/m3
  speed of sound: 1162 ± 2 m/s
  viscosity: 0.894 ± 0.012 mPa·s
[2]; 293.15 K, x2 = 0.8987
  mass density: 1034.93 ± 0.55 kg/m3
  speed of sound: 1156 ± 2 m/s
  viscosity: 1.037 ± 0.014 mPa·s
[2]; 293.15 K, x2 = 0.9502
  mass density: 1042.19 ± 0.56 kg/m3
  speed of sound: 1153 ± 2 m/s
  viscosity: 1.12 ± 0.015 mPa·s
[2]; 298.15 K, x2 = 0
  mass density: 926.98 ± 0.53 kg/m3
  speed of sound: 1151 ± 2 m/s
  viscosity: 0.367 ± 0.006 mPa·s
[2]; 298.15 K, x2 = 0.0496
  mass density: 932.23 ± 0.53 kg/m3
  speed of sound: 1154 ± 2 m/s
  viscosity: 0.381 ± 0.006 mPa·s
[2]; 298.15 K, x2 = 0.0956
  mass density: 936.98 ± 0.53 kg/m3
  speed of sound: 1155 ± 2 m/s
  viscosity: 0.395 ± 0.006 mPa·s
[2]; 298.15 K, x2 = 0.195
  mass density: 946.77 ± 0.52 kg/m3
  speed of sound: 1155 ± 2 m/s
  viscosity: 0.436 ± 0.007 mPa·s
[2]; 298.15 K, x2 = 0.3007
  mass density: 957.58 ± 0.52 kg/m3
  speed of sound: 1154 ± 2 m/s
  viscosity: 0.48 ± 0.007 mPa·s
[2]; 298.15 K, x2 = 0.3902
  mass density: 967.02 ± 0.52 kg/m3
  speed of sound: 1153 ± 2 m/s
  viscosity: 0.521 ± 0.008 mPa·s
[2]; 298.15 K, x2 = 0.4937
  mass density: 978.4 ± 0.52 kg/m3
  speed of sound: 1151 ± 2 m/s
  viscosity: 0.58 ± 0.008 mPa·s
[2]; 298.15 K, x2 = 0.5953
  mass density: 990.1 ± 0.52 kg/m3
  speed of sound: 1149 ± 2 m/s
  viscosity: 0.646 ± 0.009 mPa·s
[2]; 298.15 K, x2 = 0.6894
  mass density: 1001.55 ± 0.53 kg/m3
  speed of sound: 1147 ± 2 m/s
  viscosity: 0.725 ± 0.01 mPa·s
[2]; 298.15 K, x2 = 0.7943
  mass density: 1015.05 ± 0.54 kg/m3
  speed of sound: 1143 ± 2 m/s
  viscosity: 0.834 ± 0.012 mPa·s
[2]; 298.15 K, x2 = 0.8987
  mass density: 1029.17 ± 0.55 kg/m3
  speed of sound: 1138 ± 2 m/s
  viscosity: 0.962 ± 0.013 mPa·s
[2]; 298.15 K, x2 = 0.9502
  mass density: 1036.49 ± 0.56 kg/m3
  speed of sound: 1136 ± 2 m/s
  viscosity: 1.037 ± 0.014 mPa·s
[2]; 303.15 K, x2 = 0
  mass density: 920.34 ± 0.53 kg/m3
  speed of sound: 1128 ± 2 m/s
  viscosity: 0.348 ± 0.006 mPa·s
[2]; 303.15 K, x2 = 0.0496
  mass density: 925.65 ± 0.53 kg/m3
  speed of sound: 1131 ± 2 m/s
  viscosity: 0.362 ± 0.006 mPa·s
[2]; 303.15 K, x2 = 0.0956
  mass density: 930.46 ± 0.53 kg/m3
  speed of sound: 1133 ± 2 m/s
  viscosity: 0.376 ± 0.006 mPa·s
[2]; 303.15 K, x2 = 0.195
  mass density: 940.34 ± 0.53 kg/m3
  speed of sound: 1133 ± 2 m/s
  viscosity: 0.412 ± 0.006 mPa·s
[2]; 303.15 K, x2 = 0.3007
  mass density: 951.24 ± 0.52 kg/m3
  speed of sound: 1133 ± 2 m/s
  viscosity: 0.453 ± 0.007 mPa·s
[2]; 303.15 K, x2 = 0.3902
  mass density: 960.77 ± 0.52 kg/m3
  speed of sound: 1132 ± 2 m/s
  viscosity: 0.492 ± 0.007 mPa·s
[2]; 303.15 K, x2 = 0.4937
  mass density: 972.24 ± 0.52 kg/m3
  speed of sound: 1131 ± 2 m/s
  viscosity: 0.547 ± 0.008 mPa·s
[2]; 303.15 K, x2 = 0.5953
  mass density: 984.03 ± 0.52 kg/m3
  speed of sound: 1129 ± 2 m/s
  viscosity: 0.608 ± 0.009 mPa·s
[2]; 303.15 K, x2 = 0.6894
  mass density: 995.56 ± 0.52 kg/m3
  speed of sound: 1127 ± 2 m/s
  viscosity: 0.68 ± 0.01 mPa·s
[2]; 303.15 K, x2 = 0.7943
  mass density: 1009.16 ± 0.53 kg/m3
  speed of sound: 1124 ± 2 m/s
  viscosity: 0.782 ± 0.011 mPa·s
[2]; 303.15 K, x2 = 0.8987
  mass density: 1023.39 ± 0.54 kg/m3
  speed of sound: 1120 ± 2 m/s
  viscosity: 0.896 ± 0.012 mPa·s
[2]; 303.15 K, x2 = 0.9502
  mass density: 1030.77 ± 0.55 kg/m3
  speed of sound: 1118 ± 2 m/s
  viscosity: 0.964 ± 0.013 mPa·s

## O [water]
[1]; 293.15 K
  viscosity: 1.003 ± 0.013 mPa·s
[1]; 298.15 K
  viscosity: 0.89 ± 0.012 mPa·s
[1]; 303.15 K
  viscosity: 0.797 ± 0.011 mPa·s

## O [water] + CC(=O)O
[2]; 293.15 K, x2 = 0
  viscosity: 1.003 ± 0.013 mPa·s
[2]; 298.15 K, x2 = 0
  viscosity: 0.89 ± 0.012 mPa·s
[2]; 303.15 K, x2 = 0
  viscosity: 0.797 ± 0.011 mPa·s

— the NIST ThermoML archive (doi:10.1021/je0342825)
